{
  "source": "patent US20110269802A1",
  "about": "“METHOD OF DELIVERY OF PERISHABLE LIQUID MIXTURES USING MIXING CAP AND CONTAINER SYSTEM” (priority 2010, published 2011)",
  "test_system": "diabetic, insulin dependent canine test subject",
  "experiment": "GABA in drinking water given to diabetic, insulin dependent canine subjects; monitoring of fasting blood glucose and fructosamine",
  "format": "in vivo",
  "conditions": "for decline of fasting blood glucose: 30 mg/kg daily in 200 milliliters of water, oral, after two months of treatment, subject as its own control",
  "description": "METHODS: GABA (99% pure from Sigma-Aldrich) at a dose of 30 mg/kg was brought into solution in 200 milliliters of water daily so that the diabetic, insulin dependent canine test subject consumed the dose within approximately four hours, based on average consumption of water observed by owners. Fasting blood glucose and fructosamine were monitored once a month. Each canine subject served as its own control, with monitoring of blood glucose and fructosamine off treatment recorded the first two months followed by monitoring while on GABA therapy.",
  "data": [
    {"smiles": "NCCCC(=O)O", "note": "[GABA, gamma-aminobutyric acid]", "values": [
      {"measurement": "concentrations of blood fructosamine", "setting": "both subjects, 30 mg/kg daily in water, on treatment versus off treatment", "result": "significantly lower"},
      {"measurement": "decline of fasting blood glucose", "setting": "first test subject", "result": 49.6, "unit": "%"},
      {"measurement": "glycemic control", "setting": "insulin dependent test subjects, 30 mg/kg daily in water, within two weeks, continued improvement over four months", "result": "improved glycemic control within two weeks"},
      {"measurement": "decline of fasting blood glucose", "setting": "second test subject", "result": 50, "unit": "%"}
    ]}
  ]
}
